Source: patent US8236820B2, “Anti-inflammatory compounds and uses thereof” (priority 2007, dated 2012)
Like-named read-outs stand apart in the source and are kept apart here.

Columns and labels:
[1] = test system: MCF-7; assay: Cell viability (MTT) assay, 24-h IC50, MCF-7; type: cell-based, human; conditions: read-out: 24-h IC50
[2] = test system: MDA-MB231; assay: Cell viability (MTT) assay, 24-h IC50, MDA-MB231; type: cell-based, human; conditions: read-out: 24-h IC50
[3] = test system: HT29; assay: Cell viability (MTT) assay, 24-h IC50, HT29; type: cell-based, human; conditions: read-out: 24-h IC50
[4] = test system: SW480; assay: Cell viability (MTT) assay, 24-h IC50, SW480; type: cell-based, human; conditions: read-out: 24-h IC50
[5] = test system: MIA-PaCa-2; assay: Cell viability (MTT) assay, 24-h IC50, MIA-PaCa-2; type: cell-based, human; conditions: read-out: 24-h IC50
[6] = test system: spermidine/spermine N^1-acetyltransferase (SSAT); assay: SSAT enzymatic activity in HT-29 cells; type: cell-based, human; conditions: HT-29, 24 h; phospho-sulindac I 85 μM; P<0.05 versus control
Procedure: (§1) SW480 cells were incubated without or with phospho-sulindac I (P-S) for up to 24 h and SSAT activity was determined at each time point by determining the amount of labelled N1-acetylspermidine synthesized from [^14C]acetyl-CoA and unlabeled spermidine.
(§2) The effect of phospho-sulindac I on polyamines is mediated, at least in part, by activation of SSAT by phospho-sulindac I. It is known that conventional sulindac induces SSAT activity (Babbar et al., Cyclooxygenase-independent induction of apoptosis by sulindac sulfone is mediated by polyamines in colon cancer. J Biol Chem 2003; 278(48):47762-75.). Incubation of HT-29 and SW480 cells with 85 μM phospho-sulindac I for 24 h leads to a 3- and 4.4-fold increase of SSAT activity (P<0.05 versus control), respectively. On the other hand, incubation with sulindac led to a 1.5 and 2.5-fold increase of SSAT activity (P<0.05 versus control) in HT-29 and SW480 cells, respectively.

[7] = test system: spermidine/spermine N^1-acetyltransferase (SSAT); assay: SSAT enzymatic activity in SW480 cells; type: cell-based, human; conditions: SW480, 24 h; phospho-sulindac I 85 μM; P<0.05 versus control
Procedure: as §1, §2

[8] = type: in vivo; conditions: 5 days oral gavage; phospho-sulindac I 317 mg/kg/d, sulindac 200 mg/kg/day; 8 mice/group
Procedure: Phospho-sulindac I lacked gastrointestinal toxicity in mice; gastrointestinal toxicity is the major side effect of sulindac as well as of the entire class of NSAIDs. We evaluated in mice the potential toxicity of phospho-sulindac I. Three groups, each consisting of 8 female C57BL/6J+/+mice 6 wks of age, were treated for 5 days by oral gavage with equimolar amounts of phospho-sulindac I (317 mg/kg/d) or conventional sulindac (200 mg/kg/day) or vehicle. Mice were weighed at time 0 and on days 3 and 5. Mice surviving to the end of the study were euthanized and necropsied.
The stomachs of sulindac-treated animals were larger than those of the other two groups and in some the liver appeared hyperemic.

[9] = test system: APC^Min/+ mice; conditions: literature (Yang et al. 2003); cited from earlier work
[10] = test system: BxPC-3; assay: Cell viability (MTT) assay, 24-h IC50, BxPC-3; conditions: read-out: 24-h IC50
Procedure: Cells were incubated at 37° C. in 5% CO2. Cells were seeded at 5.5×10^4 cells/cm^2, allowed to attach overnight, and the following morning cells were treated with each of the test compounds.
Cell viability assay: We used an assay based on the reduction of 3-(4,5-dimethylthiazol-2-yl)-2,5-diphenyltetrazolium bromide dye (MTT), which was determined according to the manufacture's protocol (Promega, Madison, Wis., USA).

[11] = test system: MDA-MB 231 human breast cancer cells; assay: Cell proliferation assay (BrdU incorporation) in MDA-MB231; type: cell-based; conditions: MDA-MB231, each compound at its IC50 concentration
Description: Cell proliferation assay: To determine cell proliferation, we measured the incorporation of 5-bromo-2′-deoxyuridine (BrdU) into newly synthesized cellular DNA, following the manufacture's instructions (BD Biosciences, San Jose, Calif.).
(§3) As summarized in Table 2 below, in MDA-MB231 cells, all six compounds, each used at its IC50 concentration, a) inhibited cell proliferation between 6% and 50% compared to controls; b) induced both early and late apoptosis, as well as necrosis; and c) inhibited the G1 to S cell cycle phase transition. In this Table, the values for proliferation are the percentage of the corresponding control values. Those for apoptosis and necrosis refer to the percentage of cells in each category with respect to the entire cell population, and are to be compared to the control (vehicle only-treated) cells (uppermost row).

[12] = test system: MDA-MB 231 human breast cancer cells; assay: Annexin V and propidium iodide staining in MDA-MB231; type: cell-based; conditions: MDA-MB231, compound at its IC50, 24 h; for Necrosis (%): % of entire cell population (control 0.6); for Early apoptosis (%): % of entire cell population (control 1.4); for Late apoptosis (%): % of entire cell population (control 2.0)
Procedure: Annexin V and propidium iodide (PI) staining: Cells were seeded at a density of 1×10^5 cells/well and treated for 24 h with various concentrations of each compound or equivalent volumes of DMSO. Briefly, after incubation with the test compounds, cells were trypsinized and stained with Annexin V-FITC (Invitrogen) and PI (0.5 μg/ml). Following incubation at room temperature for 15 min in the dark, annexin V-FITC and PI fluorescence intensities were analyzed by FACScaliber (BD Bioscience). Annexin V (+)/PI (−) cells are in early apoptosis, annexin V (+)/PI (+) cells are in late apoptosis (secondary necrosis), and annexin V (−)/ PI (+) cells are necrotic cells.
as §3

[13] = Homo sapiens, MCF7, MCF-7 breast cancer cells, 24 h
[14] = Homo sapiens, MDA-MB-231, MDA-MB231 breast cancer cells, 24 h
[15] = Homo sapiens, HT-29, HT29 colon cancer cells, 24 h
[16] = Homo sapiens, SW480 colon cancer cells, 24 h
[17] = Homo sapiens, MIA-PaCa-2 pancreatic cancer cells, 24 h

Which IC50 [1, 13] does the source give for `CC1=C(CC(=O)O)c2cc(F)ccc2C1=Cc1ccc([S+](C)[O-])cc1` (stereo not shown) [Sulindac, 2-[6-fluoro-2-methyl-3-[(4-methylsulfinylphenyl)methylidene]inden-1-yl]-acetic acid, reference compound] here?
The IC50 was 1130 µM.

And the IC50 [2, 14]?
Its IC50 is 530 µM.

And the IC50 [3, 15]?
The IC50 was 1170 µM.

What about the IC50 [4, 16] of the same compound?
Its IC50 is 900 µM.

What about the IC50 [5, 17] of the same compound?
Its IC50 is 1040 µM.

And the “increase of SSAT activity” value [6]?
Its value is 1.5 fold.

What about the “increase of SSAT activity” value [7] of the same compound?
Its value is 2.5 fold.

And the mortality [8]?
Its mortality is 75%.

And the “effect on formation of tumors in the colon of Min mice” value [9]?
The value was “stimulates the formation of tumors in the colon”.

What about the IC50 ([10]; Homo sapiens, BXPC-3, 24 h) of the same compound?
The IC50 was 489 µM.

With `CCOP(=O)(OCC)OCCCCOC(=O)C(C)c1ccc(-c2ccccc2)c(F)c1` (stereo not shown) [Phospho-Flurobiprofen] as the compound, how does the IC50 ([1]; Homo sapiens, MCF7, 24 h) read?
Its IC50 is 65 µM.

And the IC50 ([2]; Homo sapiens, MDA-MB-231, 24 h)?
Its IC50 is 17 µM.

What about the IC50 ([3]; Homo sapiens, HT-29, 24 h) of the same compound?
The IC50 was 80 µM.

And the IC50 ([4]; Homo sapiens, SW480, 24 h)?
The IC50 was 104 µM.

What about the IC50 ([5]; Homo sapiens, MIA PaCa-2, 24 h) of the same compound?
The IC50 was 135 µM.

And the “Proliferation (% control)” value [11]?
The value was 42 % control.

And the “Necrosis (%)” value [12]?
Its value is 1.7%.

And the “Early apoptosis (%)” value [12]?
The value was 5.3%.

What about the “Late apoptosis (%)” value [12] of the same compound?
The value was 20.6%.

What about the IC50 ([10]; Homo sapiens, BXPC-3, 24 h) of the same compound?
The IC50 was 34 µM.

Which IC50 ([1]; MCF-7 breast cancer cells, 24 h) does the source give for `CCOP(=O)(OCC)OCC(COC(=O)c1ccccc1OC(C)=O)OP(=O)(OCC)OCC` (stereo not shown) [Glycero-phospho-aspirin II] here?
Its IC50 is 248 µM.

And the IC50 ([2]; MDA-MB231 breast cancer cells, 24 h)?
The IC50 was 360 µM.

And the IC50 ([3]; HT29 colon cancer cells, 24 h)?
Its IC50 is 40 µM.

And the IC50 ([4]; SW480 colon cancer cells, 24 h)?
The IC50 was 170 µM.

And the IC50 ([5]; MIA-PaCa-2 pancreatic cancer cells, 24 h)?
Its IC50 is 242 µM.

And the “Proliferation (% control)” value [11]?
Its value is 52 % control.

What about the “Necrosis (%)” value [12] of the same compound?
The value was 0.4%.

And the “Early apoptosis (%)” value [12]?
Its value is 2.4%.

What about the “Late apoptosis (%)” value [12] of the same compound?
The value was 2.2%.

And the IC50 ([10]; BxPC-3 pancreatic cancer cells, 24 h)?
The IC50 was 38 µM.

Which IC50 ([1]; Homo sapiens, MCF7, 24 h) does the source give for `CCOP(=O)(OCC)OCCCCOC(=O)CC1=C(C)/C(=C/c2ccc(SC)cc2)c2ccc(F)cc21` [Phospho-sulindac II] here?
Its IC50 is 38 µM.

What about the IC50 ([2]; Homo sapiens, MDA-MB-231, 24 h) of the same compound?
Its IC50 is 18 µM.

And the IC50 ([3]; Homo sapiens, HT-29, 24 h)?
The IC50 was 70 µM.

What about the IC50 ([4]; Homo sapiens, SW480, 24 h) of the same compound?
Its IC50 is 73 µM.

And the IC50 ([5]; Homo sapiens, MIA PaCa-2, 24 h)?
The IC50 was 92 µM.

What about the “Proliferation (% control)” value [11] of the same compound?
Its value is 52 % control.

What about the “Necrosis (%)” value [12] of the same compound?
Its value is 2.6%.

And the “Early apoptosis (%)” value [12]?
The value was 5.0%.

And the “Late apoptosis (%)” value [12]?
Its value is 23.2%.

And the IC50 ([10]; Homo sapiens, BXPC-3, 24 h)?
Its IC50 is 32 µM.

For `CC(C)Cc1ccc(C(C)C(=O)O)cc1` (stereo not shown) [Ibuprofen, ibuprofen, reference compound], which IC50 [1, 13] is on record?
Its IC50 is 1230 µM.

What about the IC50 [2, 14] of the same compound?
Its IC50 is 748 µM.

What about the IC50 [3, 15] of the same compound?
Its IC50 is 1550 µM.

And the IC50 [4, 16]?
Its IC50 is 1060 µM.

And the IC50 [5, 17]?
Its IC50 is 1280 µM.

What about the IC50 ([10]; Homo sapiens, BXPC-3, 24 h) of the same compound?
The IC50 was 1060 µM.
